In patent US20150344427A1 (EPIZYME, INC., priority 2012, published 2015):

Tested on: H3K27 trimethylation in WSU-DLCL2 cells
Assay: WSU-DLCL2 Methylation Assay (H3K27me3 ELISA)
Type: cell-based
Details: Homo sapiens, WSUDLCL2, 96 hours incubation, H3K27me3 normalised to total Histone H3
Text: WSU-DLCL2 suspension cells were purchased from DSMZ (German Collection of Microorganisms and Cell Cultures, Braunschweig, Germany). RPMI/Glutamax Medium, Penicillin-Streptomycin, Heat Inactivated Fetal Bovine Serum, and D-PBS were purchased from Life Technologies, Grand Island, N.Y., USA. Extraction Buffer and Neutralization Buffer (5×) were purchased from Active Motif, Carlsbad, Calif., USA. Rabbit anti-Histone H3 antibody was purchased from Abcam, Cambridge, Mass., USA. Rabbit anti-H3K27me3 and HRP-conjugated anti-rabbit-IgG were purchased from Cell Signaling Technology, Danvers, Mass., USA. TMB “Super Sensitive” substrate was sourced from BioFX Laboratories, Owings Mills, Md., USA. IgG-free Bovine Serum Albumin was purchased from Jackson ImmunoResearch, West Grove, Pa., USA. PBS with Tween (10×PBST) was purchased from KPL, Gaithersburg, Md., USA. Sulfuric Acid was purchased from Ricca Chemical, Arlington, Tex., USA. Immulon ELISA plates were purchased from Thermo, Rochester, N.Y., USA. V-bottom cell culture plates were purchased from Corning Inc., Corning, N.Y., USA. V-bottom polypropylene plates were purchased from Greiner Bio-One, Monroe, N.C., USA.
WSU-DLCL2 suspension cells were maintained in growth medium (RPMI 1640 supplemented with 10% v/v heat inactivated fetal bovine serum and 100 units/mL penicillin-streptomycin) and cultured at 37° C. under 5% CO2 Under assay conditions, cells were incubated in Assay Medium (RPMI 1640 supplemented with 20% v/v heat inactivated fetal bovine serum and 100 units/mL penicillin-streptomycin) at 37° C. under 5% CO2 on a plate shaker.
WSU-DLCL2 cells were seeded in assay medium at a concentration of 50,000 cells per mL to a 96-well V-bottom cell culture plate with 200 μL per well. Compound (1 μL) from 96 well source plates was added directly to V-bottom cell plate. Plates were incubated on a titer-plate shaker at 37° C., 5% CO2 for 96 hours. After four days of incubation, plates were spun at 241×g for five minutes and medium was aspirated gently from each well of cell plate without disturbing cell pellet. Pellet was resuspended in 200 μL DPBS and plates were spun again at 241×g for five minutes. The supernatant was aspirated and cold (4° C.) Extraction buffer (100 μL) was added per well. Plates were incubated at 4° C. on orbital shaker for two hours. Plates were spun at 3427×g×10 minutes. Supernatant (80 μL per well) was transferred to its respective well in 96 well V-bottom polypropylene plate. Neutralization Buffer 5× (20 μL per well) was added to V-bottom polypropylene plate containing supernatant. V-bottom polypropylene plates containing crude histone preparation (CHP) were incubated on orbital shaker x five minutes. Crude Histone Preparations were added (2 μL per well) to each respective well into duplicate 96 well ELISA plates containing 100 μL Coating Buffer (1×PBS+BSA 0.05% w/v). Plates were sealed and incubated overnight at 4° C. The following day, plates were washed three times with 300 μL per well 1×PBST. Wells were blocked for two hours with 300 μL per well ELISA Diluent ((PBS (1×) BSA (2% w/v) and Tween20 (0.05% v/v)). Plates were washed three times with 1×PBST. For the Histone H3 detection plate, 100 μL per well were added of anti-Histone-H3 antibody (Abcam, ab1791) diluted 1:10,000 in ELISA Diluent. For H3K27 trimethylation detection plate, 100 μL per well were added of anti-H3K27me3 diluted 1:2000 in ELISA diluent. Plates were incubated for 90 minutes at room temperature. Plates were washed three times with 300 μL 1×PBST per well. For Histone H3 detection, 100 μL of HRP-conjugated anti-rabbit IgG antibody diluted to 1:6000 in ELISA diluent was added per well. For H3K27me3 detection, 100 μL of HRP conjugated anti-rabbit IgG antibody diluted to 1:4000 in ELISA diluent was added per well. Plates were incubated at room temperature for 90 minutes. Plates were washed four times with 1×PBST 300 μL per well. TMB substrate 100 μL was added per well. […]

SMILES | IC50 [µM]
CCN(c1cc(Cl)cc(C(=O)NCc2c(C)[nH]c(C)cc2=O)c1C)[C@H]1CC[C@H](N(C)C)CC1 [Compound 1, 5-chloro-N-((2,6-dimethyl-4-oxo-1,4-dihydropyridin-3-yl)methyl)-3-(((trans)-4-(dimethylamino)cyclohexyl)(ethyl)amino)-2-methylbenzamide] | 8.44
CCN(c1cc(Cl)cc(C(=O)NCc2c(C)n(C)c(C)cc2=O)c1C)[C@H]1CC[C@H](N(C)C)CC1 [Compound 86] | > 50
CCn1c(C)cc(=O)c(CNC(=O)c2cc(Cl)cc(N(CC)[C@H]3CC[C@H](N(C)C)CC3)c2C)c1C [Compound 87] | > 50
CCN(c1cc(-c2ccc(COC)nc2)cc(C(=O)NCc2c(Cl)[nH]c(C)cc2=O)c1C)[C@H]1CC[C@H](N(C)C)CC1 [Compound 88] | 2.4
CCN(c1cc(-c2cnn(C)c2)cc(C(=O)NCc2c(Cl)[nH]c(C)cc2=O)c1C)[C@H]1CC[C@H](N(C)C)CC1 [Compound 89] | 5.9
CCN(c1cc(-c2ccc(C)nc2)cc(C(=O)NCc2c(Cl)[nH]c(C)cc2=O)c1C)[C@H]1CC[C@H](N(C)C)CC1 [Compound 90] | 2.7
CCN(c1cc(-c2cnc(C)cn2)cc(C(=O)NCc2c(Cl)[nH]c(C)cc2=O)c1C)[C@H]1CC[C@H](N(C)C)CC1 [Compound 91] | 3.3
CCN(c1cc(-c2ccc(OCCOC)cc2)cc(C(=O)NCc2c(Cl)[nH]c(C)cc2=O)c1C)[C@H]1CC[C@H](N(C)C)CC1 [Compound 92] | 3.9
CCN(c1cc(-c2ccc(OCCOC)cc2)cc(C(=O)NCc2c(C)[nH]c(C)cc2=O)c1C)[C@H]1CC[C@H](N(C)C)CC1 [Compound 93] | 1.7
CCCN(c1cc(-c2ccc(OCCOC)cc2)cc(C(=O)NCc2c(C)[nH]c(C)cc2=O)c1C)[C@H]1CC[C@H](N(C)C)CC1 [Compound 94] | 5.1
CCN(c1cc(-c2ccc(OCCOC)cc2)cc(C(=O)NCc2c(C)[nH]c(C)cc2=O)c1C)[C@H]1CC[C@H](N(C)CCOC)CC1 [Compound 100] | 7.5
